{"source": "patent US20100305326A1", "about": "“Chemical Fragment Screening and Assembly Utilizing Common Chemistry for NMR Probe Introduction and Fragment Linkage” (Marquette University, priority 2009, published 2010)", "test_system": "KCNQ channel protein", "assay": "1D 13C half filtered 1H-1H NMR NOE fragment screening", "format": "binding, rat", "details": "example of FIG. 3; mono- or di-methylated fragment A of DMP543; KCNQ protein solution", "excerpt": "The above-described NMR fragment assembly methods may be utilized to identify ligands for the KCNQ potassium channel, which can be affinity-purified from rat brain extracts using an affinity column with ligands such as DMP543, XE991 or linopirdine, covalently attached to a resin. The KCNQ channel is a membrane-bound protein and is considered large for NMR studies. […] Indeed, such methods have been recently applied to G-protein coupled receptors by using difference spectra in order to remove potential spectral artifacts from NMR experiments from chemical fragments that penetrate the lipid layer (Assadi-Porter et al, 2008). An important variation to that procedure (and inter-ligand NOE studies, as in FIG. 1), which is employed as part of the presently disclosed methods is to chemically place a ^13C labeled methyl group as an NMR reported group (the “NMR probe”), analogous to the antenna in FIG. 1. […] These experiments can be done on a 400 MHz, 500 MHz, 600 MHz or higher field NMR spectrometer, ideally equipped with a cryoprobe (and cryocooled ^13C preamp). […]\nAs a control in these experiments, the measured NOE or saturation transfer signal might be of the sample (perhaps a tissue extract) that has had the protein target removed (KCNQ in this case), which could be done using an affinity column. […]"}
{"smiles": "Cc1ccnc(F)c1", "note": "[2-fluoro-4-methylpyridine]", "values": [{"measurement": "NOE signal between 13CH3 group of fragment A and methyl group of fragment B (binding within 5 angstroms)", "result": "can show an NOE signal"}]}
